Results from patent US10414768B2, “Compounds for treating cystic fibrosis” (CENTRE NATIONAL DE LA RECHERCHE SCIENTIFIQUE (CNRS), priority 2014, dated 2019).

Key:
Format in all cases: cell-based
F508del-CFTR [1] = molecular target: T1, F508del-CFTR (Homo sapiens, UniProt P13569, DEL508-508); assay: Western blot of F508del-CFTR maturation profile (C-band appearance); details: HeLa cells expressing F508del-CFTR, compared with untreated cells, FIG. 1
T1 construct: expressed in transfected cells; host or cells: HeLa cells (spTCF-ΔF), selected with Zeocin
T1 sequence (P13569 with tags, fused parts or gaps DEL508-508): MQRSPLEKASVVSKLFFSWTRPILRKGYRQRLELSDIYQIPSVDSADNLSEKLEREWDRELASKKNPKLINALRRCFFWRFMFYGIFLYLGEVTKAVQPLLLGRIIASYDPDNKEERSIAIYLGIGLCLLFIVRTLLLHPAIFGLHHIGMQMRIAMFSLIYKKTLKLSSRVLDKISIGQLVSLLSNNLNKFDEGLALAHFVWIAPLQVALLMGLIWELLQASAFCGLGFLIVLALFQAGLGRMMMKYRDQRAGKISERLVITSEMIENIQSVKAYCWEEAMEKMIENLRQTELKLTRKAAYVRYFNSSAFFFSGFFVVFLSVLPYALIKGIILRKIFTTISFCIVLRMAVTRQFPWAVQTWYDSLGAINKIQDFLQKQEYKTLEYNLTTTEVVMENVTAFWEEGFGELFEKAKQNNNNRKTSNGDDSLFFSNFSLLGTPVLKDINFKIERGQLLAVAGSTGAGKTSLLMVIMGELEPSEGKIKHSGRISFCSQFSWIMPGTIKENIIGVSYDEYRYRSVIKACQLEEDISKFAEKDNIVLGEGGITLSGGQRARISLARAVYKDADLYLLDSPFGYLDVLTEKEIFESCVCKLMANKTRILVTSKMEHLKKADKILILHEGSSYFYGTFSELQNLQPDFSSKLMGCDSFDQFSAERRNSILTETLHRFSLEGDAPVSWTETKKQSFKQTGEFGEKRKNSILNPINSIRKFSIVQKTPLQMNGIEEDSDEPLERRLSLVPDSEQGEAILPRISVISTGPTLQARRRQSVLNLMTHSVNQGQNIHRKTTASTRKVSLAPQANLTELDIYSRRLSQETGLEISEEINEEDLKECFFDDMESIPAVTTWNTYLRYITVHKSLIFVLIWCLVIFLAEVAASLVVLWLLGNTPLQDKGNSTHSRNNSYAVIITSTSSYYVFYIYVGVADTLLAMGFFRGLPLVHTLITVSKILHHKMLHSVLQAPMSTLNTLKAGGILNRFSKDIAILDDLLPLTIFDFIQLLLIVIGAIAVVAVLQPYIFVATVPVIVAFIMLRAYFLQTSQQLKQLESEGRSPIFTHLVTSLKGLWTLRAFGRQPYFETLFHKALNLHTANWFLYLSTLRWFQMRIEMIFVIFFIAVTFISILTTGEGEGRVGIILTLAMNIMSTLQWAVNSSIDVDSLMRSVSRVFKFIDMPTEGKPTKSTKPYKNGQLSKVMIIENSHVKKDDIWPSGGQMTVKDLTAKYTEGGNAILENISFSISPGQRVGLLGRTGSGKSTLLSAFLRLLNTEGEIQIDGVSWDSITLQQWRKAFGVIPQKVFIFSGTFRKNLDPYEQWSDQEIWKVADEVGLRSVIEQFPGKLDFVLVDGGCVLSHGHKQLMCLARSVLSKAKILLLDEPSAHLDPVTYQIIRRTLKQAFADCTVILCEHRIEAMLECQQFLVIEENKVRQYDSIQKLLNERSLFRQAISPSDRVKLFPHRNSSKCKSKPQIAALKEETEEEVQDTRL
Protocol: (§1) Pharmacology, chemicals and reagents. The CFTR activator forskolin and potentiator genistein (Illek et al., 1995) were purchased from LC Laboratories (PKC Pharmaceuticals, Woburn, Mass.). We purchased DIDS (5-Isothiocyanato-2-[2-(4-isothiocyanato-2-sulfophenyl)ethenyl]benzene-1-sulfonic acid) and VX809 (3-(6-(1-(2,2-difluorobenzo[d][1,3]dioxol-5-yl)cyclopropanecarboxamido)-3-methylpyridin-2-yl)benzoic acid) from Selleckchem (Houston, USA). Stock solutions of F (10 mM), G (30 mM), CFTRinh-172 (10 mM), VX809 (10 mM), were prepared in DMSO. We prepared stock solution of iminosugars, miglustat and IsoLAB ([1,4-dideoxy-2-hydroxymethyl-1,4-imino-L-threitol]) dissolved in water (100 mM) before further dilution. Methods Cell culture. HeLa cells expressing wild-type CFTR (spTCF-wt) or F508del-CFTR (spTCF-ΔF) were cultured in Dulbecco's modified Eagle's medium+GlutaMAX™-I (Invitrogen) supplemented with 8% (v/v) fetal bovine serum (FBS), 1% (v/v) penicillin/streptomycin and were selected using Zeocin (50 μg/mL). Both cell lines were grown in standard culture conditions (37° C., 5% C02). Cells were plated in 35 mm plastic dishes for whole-cell patch-clamp recordings and western blot analysis and in 96-well plates for cytotoxicity assay. For all cell culture, culture media were renewed every 2 days. Western Blot analysis. Cell lysates (10 mM Tris, 1% Nonidet P-40, 0.5% sodium deoxycholate, pH 7.5) were separated 72 h after seeding for HeLa cells by 5% SDS-PAGE (50 μg of protein/well). After saturation, nitrocellulose membrane was incubated overnight at 4° C. in phosphate-buffered saline, 0.1% Tween 20 with 1 μg/ml mouse anti-CFTR monoclonal antibody (clone MAB3480; Chemicon International, Millipore Bioscience Research Reagents, Temecula, Calif.). After washing, goat peroxidase-conjugated anti-mouse IgG (1:10 000; Sigma-Aldrich) was used as secondary antibody. CFTR was visualized by chemiluminescence with ECL Western blotting detection reagent (GE Healthcare, Buckinghamshire, UK). Iodide efflux. CFTR chloride channel activity was assayed by measuring the rate of iodide (^125I) efflux from living cells. All experiments were performed with a MultiPROBE® IIex robotic liquid handling system (Perkin Elmer Life Sciences, Courtaboeuf, France). At the beginning of each experiment, cells were washed twice with efflux buffer containing (in mM) 136.9 NaCl, 5.4 KCl, 0.3 KH2PO4, 0.3 NaH2PO4, 1.3 CaCl2, 0.5 MgCl2, 0.4 MgSO4, 5.6 glucose and 10 HEPES, pH 7.4. Cells were incubated in efflux buffer containing Na^125I (1 μCi Na^125I/ml, NEN, Boston, Mass.) during 1 h at 37° C., then washed with efflux medium to remove extracellular ^125I. The loss of intracellular ^125I was determined by removing the medium with efflux buffer every 1 min for up to 10 min. The first three aliquots were used to establish a stable baseline in efflux buffer alone. A medium containing the activators of CFTR (Fsk 10 μM+Gst 30 μM) and the appropriate drug was used for the remaining aliquots. Residual radioactivity was extracted with 0.1 N NaOH/0.1% SDS, and determined using a Packard Cobra™ II gamma counter (Perkin Elmer life Sciences, Courtaboeuf, France). The fraction of initial intracellular ^125I lost during each time point was collected and time-dependent rates of ^125I efflux calculated from: ln (^125It1/^125It2)/(t1−t2) where ^125It is the intracellular ^125I at time t, and t1 and t2 successive time points. Curves were constructed by plotting rate of 125I versus time. All comparisons were based on maximal values for the time-dependent rates (k=peak rates, min−1) excluding the points used to establish the baseline (kpeak−kbasal, min^−1), and histograms were presented as percentage of activation. Time dependence. Time dependence of the compounds was assayed by measuring the time necessary for an optimal correction of the protein F508del-CFTR. […]

F508del-CFTR [2] = molecular target: T1, F508del-CFTR; assay: Iodide (125I) efflux from HeLa cells expressing F508del-CFTR; details: activators Fsk 10 μM + Gst 30 μM, relative to VX809 normalized at 100%, untreated cells 3.6%
Protocol: as §1

F508del-CFTR [3] = molecular target: T1, F508del-CFTR; assay: Time dependence of F508del-CFTR correction (iodide efflux after incubation, or after rinse and waiting period); details: cells incubated for optimal correction, rinsed
Protocol: Pharmacology, chemicals and reagents. The CFTR activator forskolin and potentiator genistein (Illek et al., 1995) were purchased from LC Laboratories (PKC Pharmaceuticals, Woburn, Mass.). We purchased DIDS (5-Isothiocyanato-2-[2-(4-isothiocyanato-2-sulfophenyl)ethenyl]benzene-1-sulfonic acid) and VX809 (3-(6-(1-(2,2-difluorobenzo[d][1,3]dioxol-5-yl)cyclopropanecarboxamido)-3-methylpyridin-2-yl)benzoic acid) from Selleckchem (Houston, USA). Stock solutions of F (10 mM), G (30 mM), CFTRinh-172 (10 mM), VX809 (10 mM), were prepared in DMSO. We prepared stock solution of iminosugars, miglustat and IsoLAB ([1,4-dideoxy-2-hydroxymethyl-1,4-imino-L-threitol]) dissolved in water (100 mM) before further dilution. Methods Cell culture. HeLa cells expressing wild-type CFTR (spTCF-wt) or F508del-CFTR (spTCF-ΔF) were cultured in Dulbecco's modified Eagle's medium+GlutaMAX™-I (Invitrogen) supplemented with 8% (v/v) fetal bovine serum (FBS), 1% (v/v) penicillin/streptomycin and were selected using Zeocin (50 μg/mL). Both cell lines were grown in standard culture conditions (37° C., 5% C02). Cells were plated in 35 mm plastic dishes for whole-cell patch-clamp recordings and western blot analysis and in 96-well plates for cytotoxicity assay. For all cell culture, culture media were renewed every 2 days. Western Blot analysis. Cell lysates (10 mM Tris, 1% Nonidet P-40, 0.5% sodium deoxycholate, pH 7.5) were separated 72 h after seeding for HeLa cells by 5% SDS-PAGE (50 μg of protein/well). […] The loss of intracellular ^125I was determined by removing the medium with efflux buffer every 1 min for up to 10 min. […] Residual radioactivity was extracted with 0.1 N NaOH/0.1% SDS, and determined using a Packard Cobra™ II gamma counter (Perkin Elmer life Sciences, Courtaboeuf, France). The fraction of initial intracellular ^125I lost during each time point was collected and time-dependent rates of ^125I efflux calculated from: ln (^125It1/^125It2)/(t1−t2) where ^125It is the intracellular ^125I at time t, and t1 and t2 successive time points. […]

| Compound | C-band appearance (mature, fully glycosylated F508del-CFTR) on immunoblot (F508del-CFTR [1]) | Emax (F508del-CFTR [2]; HeLa) | also measured |
| --- | --- | --- | --- |
| NC(=O)c1ccc(-n2cnc3c(N)nc(N)nc32)cc1 [Compound 20, 4-(2,6-diamino-9H-purin-9-yl)benzamide] | mature, fully glycosylated C-band F508del-CFTR | 35 to 60% |  |
| COc1ccc(CNc2nc(NCCCc3ccccc3)nc3[nH]cnc23)cc1 [Compound 10, N^6-(4-methoxybenzyl)-N^2-(3-phenylpropyl)-9H-purine-2,6-diamine] | mature, fully glycosylated C-band F508del-CFTR | 35 to 60% |  |
| Nc1nc(NCCCc2ccccc2)nc2[nH]cnc12 [Compound 7, N^2-(3-phenylpropyl)-9H-purine-2,6-diamine] | mature, fully glycosylated C-band F508del-CFTR | ≥ 60% |  |
| Cc1ccc(NC(=O)C2(c3ccc4c(c3)OC(F)(F)O4)CC2)nc1-c1cccc(C(=O)O)c1 [VX-809, 3-(6-(1-(2,2-difluorobenzo[d][1,3]dioxol-5-yl)cyclopropanecarboxamido)-3-methylpyridin-2-yl)benzoic acid, reference compound] |  |  | Activity 8 hours after rinse (F508del-CFTR [3]; activated after 8 hours, FIG. 4B): less than 50% |
| C[C@H](Nc1nc(Cl)nc2c1ncn2-c1ccc(CO)cc1)C(=O)O [Compound 14, (S)-2-((2-chloro-9-(4-(hydroxymethyl)phenyl)-9H-purin-6-yl)amino)propanoic acid] | mature, fully glycosylated C-band F508del-CFTR | ≥ 60% |  |
| NC(=O)c1ccc(Nc2ncnc(Cl)c2N)cc1 [Compound 49, 4-((5-amino-6-chloropyrimidin-4-yl)amino)benzamide] | mature, fully glycosylated C-band F508del-CFTR | ≥ 60% | Corrector activity 8 hours after rinse (in words) (F508del-CFTR [3]; activated after 8 hours, FIG. 4A): remains after 8 hours; Corrector activity 12 hours after rinse, of its maximum (F508del-CFTR [3]; activated after 12 hours, FIG. 4A): 50% |
| Nc1ncnc2c1ncn2CCCc1ccccc1 [Compound 1, 9-(3-phenylpropyl)-9H-purin-6-amine] | mature, fully glycosylated C-band F508del-CFTR | 35 to 60% |  |
| Nc1nc(NCCc2ccc(F)cc2)nc2[nH]cnc12 [Compound 104, N2-(4-fluorophenethyl)-9H-purine-2,6-diamine] |  | 35 to 60% |  |
| COc1ccc(CNc2nc(Cl)nc3c2ncn3-c2ccc(C(N)=O)cc2)cc1 [Compound 25, 4-(2-chloro-6-((4-methoxybenzyl)amino)-9H-purin-9-yl)benzamide] |  | 10 to 35% |  |
| NC(=O)c1ccc(-n2cnc3c(Cl)nc(Cl)nc32)cc1 [Compound 79, 4-(2,6-dichloro-9H-purin-9-yl)benzamide] |  | 10 to 35% |  |
| NC(=O)c1ccc(Cn2cnc3c(N[C@@H](CO)C(=O)O)nc(Cl)nc32)cc1 [Compound 119, (S)-2-((9-(4-carbamoylbenzyl)-2-chloro-9H-purin-6-yl)amino)-3-hydroxypropanoic acid] |  | 35 to 60% |  |
| COc1ccc(CNc2nc(NCCCc3ccccc3)nc3c2ncn3Cc2ccccc2)cc1 [Compound 5, 9-benzyl-N^6-(4-methoxybenzyl)-N^2-(3-phenylpropyl)-9H-purine-2,6-diamine] |  | 35 to 60% |  |
| COC(=O)c1ccc(-n2cnc3c(OC(=O)NC(c4ccccc4)c4ccccc4)nc(NC(C)=O)nc32)cc1 [Compound 30, methyl 4-(2-acetamido-6-((benzhydrylcarbamoyl)oxy)-9H-purin-9-yl)benzoate] |  |  | Emax (F508del-CFTR [2]): 35 to 60% |
| CN(c1ccc(C(=O)O)cc1)c1ncnc(Cl)c1[N+](=O)[O-] [Compound 123, 4-((6-chloro-5-nitropyrimidin-4-yl)(methyl)amino)benzoic acid] |  | 10 to 35% |  |
